In US8188098B2, “GPR119 receptor agonists” (Hoffmann-La Roche Inc., priority 2008, dated 2012):

Target: T1, GPR119 receptor (Mesocricetus auratus, UniProt A0A1U8CD06)
T1 construct: which endogenously express the GPR119 receptor; host or cells: HIT-T15 hamster pancreatic islet cells
T1 sequence (A0A1U8CD06 1-334): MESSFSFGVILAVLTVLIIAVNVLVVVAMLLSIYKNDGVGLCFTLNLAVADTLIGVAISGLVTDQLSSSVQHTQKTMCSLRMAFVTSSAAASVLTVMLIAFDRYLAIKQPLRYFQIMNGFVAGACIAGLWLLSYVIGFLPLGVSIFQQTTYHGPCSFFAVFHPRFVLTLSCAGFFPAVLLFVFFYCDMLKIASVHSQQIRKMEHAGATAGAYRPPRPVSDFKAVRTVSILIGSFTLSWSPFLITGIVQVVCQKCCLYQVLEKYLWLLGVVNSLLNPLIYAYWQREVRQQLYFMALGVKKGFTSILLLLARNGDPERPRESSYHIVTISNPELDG
Assay: cAMP assay in HIT-T15 hamster pancreatic islet cells (functional agonist activity)
Assay type: cell-based
Conditions: HIT-T15 cells endogenously expressing GPR119; 30 min at 25° C.; intracellular cAMP
In short: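 HIT-T15 cells (endogenous GPR119), 9000/well, exposed to agonist 30 min at 25° C with 0.5 mM IBMX and 0.5 mg/ml BSA. Lysate cAMP measured by chemiluminescent competitive immunoassay; EC50 from curve fit.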

EC50 [µM]	Compound
0.12	CC(C)(C)OC(=O)N1CCCC(n2ncc3c(Oc4ccccc4C#N)ncnc32)C1 (centres unmarked) [Example 90, 3-[4-(2-Cyano-phenoxy)-pyrazolo[3,4-d]pyrimidin-1-yl]-piperidine-1-carboxylic acid tert-butyl ester]
0.19	CC(C)(C)OC(=O)N1CCC(n2ncc3c(Oc4ccccc4F)ncnc32)CC1 [Example 32, 4-[4-(2-Fluoro-phenoxy)-pyrazolo[3,4-d]pyrimidin-1-yl]-piperidine-1-carboxylic acid tert-butyl ester]
0.95	Cc1nnnn1-c1ccc(Oc2ncnc3c2cnn3C2CCN(C(=O)OC(C)C)CC2)cc1 [Example 26, 4-{4-[4-(5-Methyl-tetrazol-1-yl)-phenoxy]-pyrazolo[3,4-d]pyrimidin-1-yl}-piperidine-1-carboxylic acid isopropyl ester]
0.088	CC(C)(C)OC(=O)N1CCC(n2ncc3c(Oc4cc(F)c(F)cc4F)ncnc32)CC1 [Example 35, 4-[4-(2,4,5-Trifluoro-phenoxy)-pyrazolo[3,4-d]pyrimidin-1-yl]-piperidine-1-carboxylic acid tert-butyl ester]
0.12	CS(=O)(=O)c1ccc(Oc2ncnc3c2cnn3C2CCN(Cc3cccc(OC(F)(F)F)c3)CC2)cc1 [Example 162, 4-(4-Methanesulfonyl-phenoxy)-1-[1-(3-trifluoromethoxy-benzyl)-piperidin-4-yl]-1H-pyrazolo[3,4-d]pyrimidine]
0.16	CC(C)c1noc(N2CCC(n3ncc4c(Oc5ccc(S(C)(=O)=O)c(F)c5)ncnc43)CC2)n1 [Example 128, 4-(3-Fluoro-4-methanesulfonyl-phenoxy)-1-[1-(3-isopropyl-[1,2,4]oxadiazol-5-yl)-piperidin-4-yl]-1H-pyrazolo[3,4-d]pyrimidine]
0.36	CC(C)Cc1cc(C(=O)N2CCC(n3ncc4c(Oc5ccc(S(C)(=O)=O)cc5)ncnc43)CC2)no1 [Example 154, (5-Isobutyl-isoxazol-3-yl)-{4-[4-(4-methanesulfonyl-phenoxy)-pyrazolo[3,4-d]pyrimidin-1-yl]-piperidin-1-yl}-methanone]
0.17	Cc1ncccc1Oc1ncnc2c1cnn2C1CCN(C(=O)OC(C)(C)C)CC1 [Example 92, 4-[4-(2-Methyl-pyridin-3-yloxy)-pyrazolo[3,4-d]pyrimidin-1-yl]-piperidine-1-carboxylic acid tert-butyl ester]
0.2	CCOc1ccc(Oc2ncnc3c2cnn3C2CCN(C(=O)OC(C)(C)C)CC2)cc1 [Example 40, 4-[4-(4-Ethoxy-phenoxy)-pyrazolo[3,4-d]pyrimidin-1-yl]-piperidine-1-carboxylic acid tert-butyl ester]
1.5	CC(C)(C)OC(=O)N1CCC(n2ncc3c(Nc4ccc(S(C)(=O)=O)cc4)ncnc32)CC1 [Example 5, 4-[4-(4-Methanesulfonyl-phenylamino)-pyrazolo[3,4-d]pyrimidin-1-yl]-piperidine-1-carboxylic acid tert-butyl ester]
0.75	CC(C)(C)OC(=O)N1CCC(n2ncc3c(Oc4ccc([N+](=O)[O-])cc4F)ncnc32)CC1 [Example 66, 4-[4-(2-Fluoro-4-nitro-phenoxy)-pyrazolo[3,4-d]pyrimidin-1-yl]-piperidine-1-carboxylic acid tert-butyl ester]
0.036	CS(=O)(=O)c1ccc(Oc2ncnc3c2cnn3C2CCN(Cc3ccc(C(F)(F)F)cc3)CC2)cc1 [Example 161, 4-(4-Methanesulfonyl-phenoxy)-1-[1-(4-trifluoromethyl-benzyl)-piperidin-4-yl]-1H-pyrazolo[3,4-d]pyrimidine]
0.3	CN(C)S(=O)(=O)c1ccc(Oc2ncnc3c2cnn3C2CCN(C(=O)OC(C)(C)C)CC2)cc1 [Example 57, 4-[4-(4-Dimethylsulfamoyl-phenoxy)-pyrazolo[3,4-d]pyrimidin-1-yl]-piperidine-1-carboxylic acid tert-butyl ester]
0.083	CC(C)(C)OC(=O)N1CCC(n2ncc3c(Oc4ccc(C(F)(F)F)cc4Cl)ncnc32)CC1 [Example 54, 4-[4-(2-Chloro-4-trifluoromethyl-phenoxy)-pyrazolo[3,4-d]pyrimidin-1-yl]-piperidine-1-carboxylic acid tert-butyl ester]
0.71	CC(C)OC(=O)N1CCC(n2ncc3c(Oc4ccccc4C#N)ncnc32)CC1 [Example 19, 4-[4-(2-Cyano-phenoxy)-pyrazolo[3,4-d]pyrimidin-1-yl]-piperidine-1-carboxylic acid isopropyl ester]
3.1	CC(C)OC(=O)N1CCC(n2ncc3c(Nc4cc(F)c(F)cc4F)ncnc32)CC1 [Example 2, 4-[4-(2,4,5-Trifluoro-phenylamino)-pyrazolo[3,4-d]pyrimidin-1-yl]-piperidine-1-carboxylic acid isopropyl ester]

EC50 [µM]	Compound
1.7	CS(=O)(=O)c1ccc(Oc2ncnc3c2cnn3C2CCN(C(=O)C(F)(F)F)CC2)cc1 [Example 148, 2,2,2-Trifluoro-1-{4-[4-(4-methanesulfonyl-phenoxy)-pyrazolo[3,4-d]pyrimidin-1-yl]-piperidin-1-yl}-ethanone]
0.6	CC(C)(C)OC(=O)N1CCC(n2ncc3c(Oc4cccc(F)c4)ncnc32)CC1 [Example 33, 4-[4-(3-Fluoro-phenoxy)-pyrazolo[3,4-d]pyrimidin-1-yl]-piperidine-1-carboxylic acid tert-butyl ester]
0.31	CC(=O)c1ccc(Oc2ncnc3c2cnn3C2CCN(C(=O)OC(C)(C)C)CC2)cc1C [Example 65, 4-[4-(4-Acetyl-3-methyl-phenoxy)-pyrazolo[3,4-d]pyrimidin-1-yl]-piperidine-1-carboxylic acid tert-butyl ester]
1.5	COc1ccc(Oc2ncnc3c2cnn3C2CCN(C(=O)OC(C)(C)C)CC2)cn1 [Example 96, 4-[4-(6-Methoxy-pyridin-3-yloxy)-pyrazolo[3,4-d]pyrimidin-1-yl]-piperidine-1-carboxylic acid tert-butyl ester]
0.27	CC(C)(C)CC(=O)N1CCC(n2ncc3c(Oc4ccc(S(C)(=O)=O)cc4)ncnc32)CC1 [Example 144, 1-{4-[4-(4-Methanesulfonyl-phenoxy)-pyrazolo[3,4-d]pyrimidin-1-yl]-piperidin-1-yl}-3,3-dimethyl-butan-1-one]
0.22	CC(C)(C)OC(=O)N1CCC(n2ncc3c(Oc4ccc(C#N)c(F)c4)ncnc32)CC1 [Example 48, 4-[4-(4-Cyano-3-fluoro-phenoxy)-pyrazolo[3,4-d]pyrimidin-1-yl]-piperidine-1-carboxylic acid tert-butyl ester]
0.53	CC(C)(C)OC(=O)N1CCC(n2ncc3c(Oc4ccc(F)cc4)ncnc32)CC1 [Example 34, 4-[4-(4-Fluoro-phenoxy)-pyrazolo[3,4-d]pyrimidin-1-yl]-piperidine-1-carboxylic acid tert-butyl ester]
0.16	CS(=O)(=O)c1ccc(Oc2ncnc3c2cnn3C2CCN(C(=O)c3nc4ccccc4s3)CC2)cc1 [Example 156, Benzothiazol-2-yl-{4-[4-(4-methanesulfonyl-phenoxy)-pyrazolo[3,4-d]pyrimidin-1-yl]-piperidin-1-yl}-methanone]
0.14	CCOC(=O)N1CCC(n2ncc3c(Oc4ccc(S(C)(=O)=O)cc4F)ncnc32)CC1 [Example 14, 4-[4-(2-Fluoro-4-methanesulfonyl-phenoxy)-pyrazolo[3,4-d]pyrimidin-1-yl]-piperidine-1-carboxylic acid ethyl ester]
0.58	CS(=O)(=O)c1ccc(Oc2ncnc3c2cnn3C2CCN(Cc3ccccc3)CC2)cc1 [Example 157, 1-(1-Benzyl-piperidin-4-yl)-4-(4-methanesulfonyl-phenoxy)-1H-pyrazolo[3,4-d]pyrimidine]
0.28	CC(C)(C)OC(=O)N1CCC(n2ncc3c(Oc4ccc(C#N)cc4F)ncnc32)CC1 [Example 47, 4-[4-(4-Cyano-2-fluoro-phenoxy)-pyrazolo[3,4-d]pyrimidin-1-yl]-piperidine-1-carboxylic acid tert-butyl ester]
0.58	CS(=O)(=O)c1ccc(Oc2ncnc3c2cnn3C2CCN(C(=O)CC3CCCCC3)CC2)cc1 [Example 145, 2-Cyclohexyl-1-{4-[4-(4-methanesulfonyl-phenoxy)-pyrazolo[3,4-d]pyrimidin-1-yl]-piperidin-1-yl}-ethanone]
0.36	CS(=O)(=O)c1ccc(Oc2ncnc3c2cnn3C2CCN(Cc3ccccc3O)CC2)cc1 [Example 164, 2-{4-[4-(4-Methanesulfonyl-phenoxy)-pyrazolo[3,4-d]pyrimidin-1-yl]-piperidin-1-ylmethyl}-phenol]
0.65	CCOC(=O)N1CCC(n2ncc3c(Oc4ccc(S(C)(=O)=O)cc4)ncnc32)CC1 [Example 13, 4-[4-(4-Methanesulfonyl-phenoxy)-pyrazolo[3,4-d]pyrimidin-1-yl]-piperidine-1-carboxylic acid ethyl ester]
3.4	CCc1cc(Oc2ncnc3c2cnn3C2CCN(C(=O)OC(C)(C)C)CC2)nc(C)n1 [Example 103, 4-[4-(6-Ethyl-2-methyl-pyrimidin-4-yloxy)-pyrazolo[3,4-d]pyrimidin-1-yl]-piperidine-1-carboxylic acid tert-butyl ester]
0.048	CC(C)(C)OC(=O)N1CCC(n2ncc3c(Oc4ccc(S(C)(=O)=O)cc4F)ncnc32)CC1 [Example 60, 4-[4-(2-Fluoro-4-methanesulfonyl-phenoxy)-pyrazolo[3,4-d]pyrimidin-1-yl]-piperidine-1-carboxylic acid tert-butyl ester]
